Earlier results in patent publication US20030203881A1, “Method of treating neurologic disorders” (priority 2000, published 2003).

Tests used:
microglial response = conditions: experimental model of stroke, around stroke lesions
[1] = test system: patients with mild and moderate arthritis
neurons = conditions: tissue culture
inflammatory cells = conditions: EAE
[2] = test system: osteoarthritis in dog models; conditions: prophylactic administration

SMILES | microglial response in the area surrounding areas of brain ischemia (microglial response) | efficacy in patients with arthritis [1] | safety in patients with arthritis [1] | protection of neurons against death (neurons) | invasion of inflammatory cells into the CNS (inflammatory cells) | severity of osteoarthritis [2]
CN(C)c1ccc(O)c2c1C[C@H]1C[C@H]3[C@H](N(C)C)C(=O)C(C(N)=O)=C(O)[C@@]3(O)C(=O)C1=C2O [minocycline] | reduced the microglial response | effective | safe | protects neurons against death | prevents the invasion of inflammatory cells into the CNS | –
C[C@H]1c2cccc(O)c2C(=O)C2=C(O)[C@]3(O)C(=O)C(C(N)=O)=C(O)[C@@H](N(C)C)[C@@H]3[C@@H](O)[C@@H]21 [doxycycline] | – | – | – | – | – | markedly reduced the severity of osteoarthritis
